{
  "source": "patent US20080125432A1",
  "about": "(Devgen NV, priority 2004, published 2008)",
  "key": {"Male mice (NRMI)": {"system": "Male mice (NRMI)", "assay": "In vivo telemetry ECG recording in mice, intraperitoneal application", "settings": "consecutive dosing i.p. (3-15 μM/kg), n=5", "protocol": "Male mice (NRMI) were anesthetized with a gas mixture of isoflurane, nitrous oxide and oxigen. Leads connected to a telemetry transmitter (TA10EA-F20, DSI, St. Paul, USA) were fixed by suture in the xiphoid and ventral neck region. The telemetry transmitter was placed under the skin on the back. Wounds were closed in layers and the animals were allowed to recover for at least 1 week.\nOn the day of the experiment the animals receive consecutive doses of vehicle i.p. at 60 min dosing intervals. ECG tracings (12 s duration) was recorded using the Data Sciences A.R.T. system. After completion of the experiment ECGs were analyzed automatically by Data Sciences ECG software (DSI, St. Paul, USA). QT and QRS intervals were measured manually in the stored ECGs. QTc was calculated from the QT interval and the corresponding heart rate using Bazett's formula. Heart rate was taken from the online analysis, given by the DSI Labpro and DSI A.R.T. systems (DSI, St. Paul, USA). Finally, ECG intervals were transferred to an Excel spreadsheet, checked for plausibility, and converted into 15 min averages."}, "[1]": {"system": "arterially perfused rabbit left ventricular wedge preparation", "assay": "Arterially perfused rabbit left ventricular wedge preparation (QT, Tp-e, EAD, TdP)", "settings": "2000 ms BCL; for Tp-e: control 52.2 ± 3.7; for QT: control 288.2 ± 11.1; for EAD: events per preparations", "from_the_text": "The compounds were checked for their effect on the QT interval, the Tp-e interval (Yan and Antzelevitch, Circulation 1998; 98:1928-1936; Yan et al, Circulation 2001; 103:2851-2856) that approximates closely to transmural dispersion of repolarization (TDR), the Tp-e/QT ratio that reflects the potential of phase 2 early afterdepolarization (EAD) development in sub- and/or endocardium (Joshi et al, Journal of Electrocardiology, 2004, 34 (suppl): 7-14) and the phenomena dependent on phase 2 EAD (i.e. R on T extrasystole and TdP) in the isolated arterially-perfused rabbit ventricular wedge preparation.\nFemale rabbits weighting 2.5-3 kg were anticoagulated with heparin and anesthetized with pentobarbital (30-35 mg/kg, i.v.). The chest was opened via left thoracotomy, and the heart was excised and placed in a cardioplegic solution consisting of cold (4° C.) normal Tyrode s solution (in mmol/l: NaCl 129, KCl 4.0, CaCl2 1.8, NaH2PO4 0.9, MgSO4 0.5, NaHCO3 20, glucose 5.5). A transmural wedge, approximately 1.5 cm wide and 2-3 cm long, was dissected from the left ventricle and rapidly cannulated via the left anterior descending artery or the circumflex artery and perfused with cardioplegic solution for <4 min. The preparation was then transferred to a tissue bath (100 ml) and perfused with warm (35.7±0.1° C.) Tyrode's solution containing 4 mM K^+ buffered ? with 95% O2 and 5% CO2. Perfusion pressure was set at 40-50 mmHg by using a peristaltic pump. The preparation was paced at a basic cycle length of 1000 ms and allowed to equilibrate for approximately 1 h, the time necessary to achieve electrical stability. Electrical pacing was delivered via bipolar silver electrodes insulated except at the tips and applied to the endocardial surface.\nAfter the preparation equilibrated for one hour, the experiment was initiated. During the infusion of the compounds, the preparation was stimulated from the endocardium at basic cycle lengths of 1000 ms from the beginning of the infusion to the 20th minute and then at 2000 ms from the 20th minute to the 30th minute. At the end of each pacing cycle length, the ECG signal was sampled for 1 to 2 min at a sampling rate of 1562 Hz (Spike 2 software, CED, England)\nA transmural ECG signal was recorded in all experiments. The QT interval was defined as the time from the onset of the QRS to the point at which the final downslope of the T wave across isoelectric line. The QT interval values were derived from the mean values of four consecutive beats. (Yan and Antzelevitch, Circulation 1998; Yan et al, Circulation 2001; 103:2851-2856; and Antzelevitch, Journal of Electrocardiology 2004; 37(Suppl): 15-24)."}},
  "data": [
    {"compound": "COc1ccccc1Nc1nc(C)c(C(=O)N[C@H]2CCC[C@@H]2OCc2ccccc2)s1", "note": "[Compound 68, 2-(2-methoxy-phenylamino)-4-methyl-thiazole-5-carboxylic acid (1S,2S)-2-(benzyloxycyclopent-1-yl) amide]", "values": [
      {"measurement": "QT and QTc intervals in the mouse ECG", "setting": "Male mice (NRMI); 60 min dosing intervals", "value": "significant, dose-dependent but late onset prolongation"},
      {"measurement": "Heart rate", "setting": "Male mice (NRMI)", "value": "minor and not significant decrease"},
      {"measurement": "Locomotor activity", "setting": "Male mice (NRMI)", "value": "reproducible rise after each of the subsequent injections"},
      {"measurement": "PQ and QRS in the mouse ECG", "setting": "Male mice (NRMI)", "value": "did not show dose-dependent changes"},
      {"measurement": "TdP Score", "setting": "[1]; 1 μmol/l", "value": "0.0 ± 0.0"},
      {"measurement": "Tp-e", "setting": "[1]; 1 μmol/l", "value": "52.0 ± 3.9", "unit": "ms"},
      {"measurement": "QT", "setting": "[1]; 1 μmol/l", "value": "287.6 ± 11.4", "unit": "ms"},
      {"measurement": "EAD", "setting": "[1]; 1 μmol/l", "value": "0/5"},
      {"measurement": "TdP Score", "setting": "[1]; 3 μmol/l", "value": "0.0 ± 0.0"},
      {"measurement": "Tp-e", "setting": "[1]; 3 μmol/l", "value": "51.4 ± 4.0", "unit": "ms"},
      {"measurement": "QT", "setting": "[1]; 3 μmol/l", "value": "286.6 ± 12.0", "unit": "ms"},
      {"measurement": "EAD", "setting": "[1]; 3 μmol/l", "value": "0/5"}
    ]}
  ]
}
